The test system of test [1] is SW480. The experiment in a line: Cytotoxicity against human SW480 cells by MTT assay. Format: functional, cell-based. In general terms: Formazan colour is commonly taken as a measure of viable cells.
Test [2] is described as follows: Cytotoxicity against human HL60 cells by MTT assay. The format is functional, cell-based. The note with it: HL-60.
Test [3] deals with MCF7. The test can be described thus: Cytotoxicity against human MCF7 cells by MTT assay. The format is functional, cell-based.
For test [4], the system named is A549. The experiment in a line: Cytotoxicity against human A549 cells by MTT assay. Format: functional, cell-based.
Test [5] in a line: Cytotoxicity against human SMMC7721 cells by MTT assay. The note with it: SMMC-7721. Format: functional, cell-based.
The subject of test [6] is A549. The test can be described thus: Potency index, ratio IC50 of cisplatin to IC50 of compound for cytotoxicity against human A549 cells. Format: functional.
A short description of test [7]: Potency index, ratio IC50 of cisplatin to IC50 of compound for cytotoxicity against human SMMC7721 cells. Format: functional, SMMC-7721.
Test [8] has as its system SW480. The experiment in a line: Potency index, ratio IC50 of cisplatin to IC50 of compound for cytotoxicity against human SW480 cells. The format is functional.
Test [9] has as its system MCF7. The experiment in a line: Potency index, ratio IC50 of cisplatin to IC50 of compound for cytotoxicity against human MCF7 cells. Format: functional.

As for `Cc1n(CC(=O)N2CCC3(C)c4ccccc4N(C)C23)c2ccccc2[n+]1CC(=O)c1ccc2ccccc2c1` (centres undefined), the IC50 – broadly, the midpoint of a concentration-inhibition curve – in the test with SW480 [1] came to 10.1 µM; in [2] it was 5.95 µM; with MCF7 [3] it was 9.45 µM; in the test with A549 [4], 7.64 µM; in test [5] it was 7.09 µM.
Turning to `Cc1cc2c(cc1C)[n+](Cc1ccc3ccccc3c1)cn2CC(=O)N1CCC2(C)c3ccccc3N(C)C12` (centres undefined), the IC50 in the test on SW480 [1] is 4.54 µM; in [2], 1.35 µM; with MCF7 [3] it was 1.84 µM; with A549 [4] it was 6.18 µM; in [5], 4.03 µM.
In the case of `COc1ccc(C(=O)C[n+]2c(C)n(CC(=O)N3CCC4(C)c5ccccc5N(C)C34)c3ccccc32)cc1` (centres undefined), the half-maximal inhibitory concentration (IC50) (in the test on SW480 [1]; in [2]; with MCF7 [3]; in the test with A549 [4]; in test [5]) was greater than 20 µM throughout.
`Cc1cc2c(cc1C)[n+](Cc1ccccc1Br)cn2CC(=O)N1CCC2(C)c3ccccc3N(C)C12` (centres undefined): the IC50 with SW480 [1] is 7.24 µM; in [2], 1.67 µM; in the test on MCF7 [3], 6.28 µM; with A549 [4], 12.7 µM; in [5], 5.61 µM.
On to `Cc1cc2c(cc1C)[n+](CC(=O)c1ccccc1)cn2CC(=O)N1CCC2(C)c3ccccc3N(C)C12` (centres undefined), for which the IC50 in the test on SW480 [1] is greater than 20 µM; in [2], 8.03 µM; in the test with MCF7 [3], 13.4 µM; in the test on A549 [4], greater than 20 µM; in [5], greater than 20 µM.
Turning to `Cc1n(CC(=O)N2CCC3(C)c4ccccc4N(C)C23)c2ccccc2[n+]1Cc1ccc2ccccc2c1` (centres undefined), the IC50 in the test with SW480 [1] was found to be 7.36 µM; in [2], 1.49 µM; with MCF7 [3] it was 5.09 µM; with A549 [4] it was 16.7 µM; in test [5], 4.34 µM.
For the compound `Cc1cc2c(cc1C)[n+](Cc1ccccc1Br)cn2CC(=O)N1CCC2(C)c3ccccc3N(Cc3ccccc3)C12.[Br-]` (centres undefined), the IC50 was 1.44 µM in the test with SW480 [1]; 1.27 µM in [2]; 1.78 µM with MCF7 [3]; 2.68 µM in the test on A549 [4]; 1.72 µM in test [5]. Further, the “Ratio IC50” value came to 2.6 in the test with A549 [6], 4.7 in test [7] and 6.2 with SW480 [8].
On to `Cc1n(CC(=O)N2CCC3(C)c4ccccc4N(C)C23)c2ccccc2[n+]1Cc1ccccc1Br` (centres undefined), for which the IC50 is greater than 20 µM in the test on SW480 [1]; 3.72 µM in [2]; 8.95 µM with MCF7 [3]; greater than 20 µM in the test on A549 [4]; 10.8 µM in test [5].
`Cc1cc2c(cc1C)[n+](CC(=O)c1ccc(Br)cc1)cn2CC(=O)N1CCC2(C)c3ccccc3N(C)C12` (centres undefined): the IC50 with SW480 [1] is 8.52 µM; in test [2], 7.31 µM; in the test on MCF7 [3], 8.28 µM; in the test on A549 [4], greater than 20 µM; in test [5] it was 8.72 µM.
For the compound `CC12CCN(C(=O)Cn3cnc4ccccc43)C1N(Cc1ccccc1)c1ccccc12` (centres undefined), the half-inhibitory concentration (IC50) (in the test with SW480 [1]; in [2]; in the test with MCF7 [3]; with A549 [4]; in [5]) was greater than 20 µM throughout.
Regarding `Cc1cc2c(cc1C)[n+](CC(=O)c1ccc3ccccc3c1)cn2CC(=O)N1CCC2(C)c3ccccc3N(C)C12` (centres undefined), the 50% inhibitory concentration (IC50) was found to be 5.01 µM in the test on SW480 [1]; 1.6 µM in test [2]; 4.88 µM in the test with MCF7 [3]; 6.47 µM in the test with A549 [4]; 2.85 µM in test [5].
`Cc1cc2ncn(CC(=O)N3CCC4(C)c5ccccc5N(Cc5ccccc5)C34)c2cc1C` (centres undefined): the IC50 (in the test with SW480 [1]; in test [2]; in the test with MCF7 [3]; in the test on A549 [4]; in test [5]) was greater than 20 µM in each case.
For the compound `Cc1n(CC(=O)N2CCC3(C)c4ccccc4N(Cc4ccccc4)C23)c2ccccc2[n+]1Cc1ccc2ccccc2c1.[Br-]` (centres undefined), the IC50 in the test with SW480 [1] was determined as 1.64 µM; in test [2] it was 1.38 µM; with MCF7 [3] it was 1.46 µM; with A549 [4], 6.26 µM; in test [5], 1.8 µM. In addition, the “Ratio IC50” value with MCF7 [9] is recorded as 7.2.
Turning to `CC12CCNC1N(Cc1ccccc1)c1ccccc12` (centres undefined), the concentration for half-maximal inhibition (IC50) (in the test with SW480 [1]; in test [2]; in the test on MCF7 [3]; in the test with A549 [4]; in [5]) was greater than 20 µM in each case.
Turning to `Cc1ccc(C[n+]2c(C)n(CC(=O)N3CCC4(C)c5ccccc5N(C)C34)c3ccccc32)cc1` (centres undefined), the IC50 is greater than 20 µM in the test on SW480 [1]; 2.25 µM in test [2]; 10.8 µM in the test on MCF7 [3]; greater than 20 µM in the test with A549 [4]; 8.03 µM in [5].
For `Cc1n(CC(=O)N2CCC3(C)c4ccccc4N(C)C23)c2ccccc2[n+]1CC(=O)c1ccc(Br)cc1` (centres undefined), the IC50 (in the test with SW480 [1]; in test [2]; with MCF7 [3]; in the test with A549 [4]; in test [5]) was greater than 20 µM throughout.
Take `Cc1cc2c(cc1C)[n+](Cc1ccc(Br)cc1)cn2CC(=O)N1CCC2(C)c3ccccc3N(C)C12` (centres undefined): the IC50 in the test on SW480 [1] turned out to be 6.9 µM; in test [2] it was 1.73 µM; in the test on MCF7 [3], 3.08 µM; with A549 [4], 17.4 µM; in test [5], 5.69 µM.
For `Cc1ccc(C[n+]2cn(CC(=O)N3CCC4(C)c5ccccc5N(C)C34)c3cc(C)c(C)cc32)cc1` (centres undefined), in that order: 7.57 µM, 1.52 µM, 5.79 µM, 10.5 µM and 4.52 µM.
For the compound `Cc1nc2ccccc2n1CC(=O)N1CCC2(C)c3ccccc3N(Cc3ccccc3)C12` (centres undefined), the IC50 (with SW480 [1]; in [2]; in the test with MCF7 [3]; in the test on A549 [4]; in [5]) was greater than 20 µM each time.
In the case of `COc1ccc(C(=O)C[n+]2cn(CC(=O)N3CCC4(C)c5ccccc5N(C)C34)c3cc(C)c(C)cc32)cc1` (centres undefined), the IC50 with SW480 [1] was 11.1 µM; in test [2] it was 6.23 µM; in the test on MCF7 [3], 8.15 µM; in the test with A549 [4], greater than 20 µM; in test [5], 7.49 µM.
For `CN1c2ccccc2C2(C)CCNC12` (centres undefined), in that order: greater than 20 µM, greater than 20 µM, greater than 20 µM, greater than 20 µM and greater than 20 µM.
Regarding `Cc1nccn1CC(=O)N1CCC2(C)c3ccccc3N(Cc3ccccc3)C12` (centres undefined), the IC50 (in the test with SW480 [1]; in [2]; in the test with MCF7 [3]; in the test with A549 [4]; in test [5]) was greater than 20 µM in each case.
Consider `c1c[nH]cn1` [IMIDAZOLE], for which the IC50 (in the test with SW480 [1]; in [2]; in the test on MCF7 [3]; with A549 [4]; in [5]) was greater than 20 µM in each case.

Values taken from ChEMBL document CHEMBL3745696, “Synthesis and cytotoxic activity of novel hexahydropyrrolo[2,3-b]indole imidazolium salts” (Bioorg Med Chem Lett, 2016).
